Source: patent publication US4550172A, “Novel heterocyclic compounds as antiallergic agents” (American Home Products Corporation, priority 1984, dated 1985)

System: LTD4 induced bronchoconstriction
Assay: inhibition of LTD4-induced bronchospasm in guinea pigs (SRS-A antagonist properties)
Assay type: in vivo, guinea pigs (male Hartley strain)
Settings: LTD4 for induction, compound 50 mg/kg intraduodenal, 10 minutes before induction of bronchospasm
Protocol: The assay of this Example measures the in vivo ability of the components of the invention to inhibit the bronchospasm induced in guinea pigs by the exogenously administered leukotrienes C4 and/or D4. This assay is essentially a measure of the SRS-A antagonist properties of the compounds tested.
This assay is carried out as follows:
Male Hartley strain guinea pigs (350-600 g) are anesthetized with pentobarbital sodium (50 mg/kg, i.p.). The jugular vein is cannulated for injection of drugs and the carotid artery for monitoring blood pressure. The trachea is cannulated for artificial ventilation by a miniature Starling pump and for indirect measurement of respiratory volume changes as described infra. Additional pentobarbital sodium (15 mg/kg, i.v.) is administered to arrest spontaneous respiration. Submaximal bronchoconstrictor responses are established in control animals by varying the dose-levels of leukotriene. Intravenous dose-levels for LTC4 range from 1 to 2 μg/kg and for LTD4 the range is from 0.3 to 1 μg/kg. The aerosol bronchoprovocation dose for LTC4 is generated from 1.6 μM solution and for LTD4 from a 2.0 μM solution.
Test drugs are administered either intravenously, intraduodenally, by aerosol or orally at 1 or 10 minutes before induction of bronchospasm by administration of either LTC4 or LTD4 at the predetermined dose-levels. Aerosols of soluble drugs or leukotrienes are produced in-line for 10 seconds only by actuation of an ultrasonic nebulizer (Monaghan). Aerosolized drug dosage is expressed in terms of solution concentration and by a fixed aerosol exposure time (approximately 10 seconds). Control animals receive saline in place of drug.
Respiratory volume changes are determined by a calibrated piston whose travel is recorded, via a linear transducer, on a Beckman Dynograph recorder. Maximal bronchoconstrictor volume is determined by clamping off the trachea at the end of the experiment. Overflow volumes at 1, 3 and 5 minutes are obtained from the recorded charts.
The overflow volume at 1, 3 and 5 minutes is expressed as a percentage of maximal bronchoconstriction. Combined group values are used from each of these time intervals to determine the inhibitory effect of drugs. [formula] Students t-test for unpaired data is used to determine statistical significance. Dose response curves are generated and ED50 doses are interpolated from the regression lines.
Results for a compound of the invention in this assay, using LTD4 for induction of bronchospasm, is given below: […]

Structure (SMILES)	% Inhibition Overflow Volume at 3 min.	% Inhibition Overflow Volume at 5 min.
O=C1CCC(=O)N1c1cccc(OCc2nc3ccccc3s2)c1 [Example 1, N-[3-[(2-benzothiazolyl)methoxy]phenyl]pyrrolidin-2,5-dione]	63%	68%
Cn1c(COc2cccc(N3C(=O)CCC3=O)c2)nc2ccccc21 [Example 2, N-[3-[(1-methyl-2-benzimidazolyl)methoxy]phenyl]pyrrpolidin-2,5-dione]	75%	78%
